Experimental data from PubChem BioAssay (NCI).
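Cells were grown in 96-well plates and exposed to each compound for 48 hours at five concentrations; endpoints were interpolated linearly between bracketing concentrations, or set to the highest concentration if not reached. GI50 marks 50% less growth. TGI: total growth inhibition.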

Key:
Assay in all cases: NCI anticancer screen, dose series, 48 h
SN12C renal = test system: SN12C renal
NCI-H226 lung = test system: NCI-H226 lung
MDA-MB-435 = test system: MDA-MB-435
A498 renal = test system: A498 renal
NCI/ADR-RES ovarian = test system: NCI/ADR-RES ovarian
UACC-257 melanoma = test system: UACC-257 melanoma
KM12 colon = test system: KM12 colon
ACHN renal = test system: ACHN renal
A549 NSCLC = test system: A549 NSCLC
HL-60(TB) leukemia = test system: HL-60(TB) leukemia

SMILES | GI50 (SN12C renal) [µM] | TGI (SN12C renal) [µM] | GI50 (NCI-H226 lung) [µM] | TGI (NCI-H226 lung) [µM] | GI50 (MDA-MB-435) [µM] | TGI (MDA-MB-435) [µM] | GI50 (A498 renal) [µM] | TGI (A498 renal) [µM] | GI50 (NCI/ADR-RES ovarian) [µM] | TGI (NCI/ADR-RES ovarian) [µM] | GI50 (UACC-257 melanoma) [µM] | TGI (UACC-257 melanoma) [µM] | GI50 (KM12 colon) [µM] | TGI (KM12 colon) [µM] | GI50 (ACHN renal) [µM] | TGI (ACHN renal) [µM] | GI50 (A549 NSCLC) [µM] | TGI (A549 NSCLC) [µM] | TGI (HL-60(TB) leukemia) [µM] | GI50 (HL-60(TB) leukemia) [µM]
COc1ccc(-c2cc(-c3ccc(O)cc3)nc3nc(=S)[nH]c(N)c23)cc1 | 18.5 | 45.1 | 15.7 | 36.9 | 17.3 | 41.4 | 20.5 | 43.4 | 26.1 | 66.3 | 17.2 | 36.3 | 16.9 | 41.3 | 19.1 | 65.5 | 17.4 | 54.6 |  | 
CCOC(=O)C1c2[nH]c3ccccc3c2CCN1C(=O)c1ccco1 (centres undefined) |  | > 10 |  |  |  | > 10 |  | > 10 |  | > 10 |  | > 10 |  | > 10 |  | > 10 |  | > 10 | > 10 | 
CCc1ccc(CCC(=O)Nc2ncc(Cc3cc(Cl)ccc3Cl)s2)o1 | 1.93 | 36.9 | 3.61 | > 50 | 0.15 | 0.486 | 1.19 | 3.46 | 1.6 | > 50 |  |  | 1.12 | > 50 | 1.69 | 11.6 | 2.14 | > 50 | 2.11 | 0.887
O=c1oc2c3ccc4ccccc4c3n(CCN3CCOCC3)c2c2ccccc12 |  |  |  |  |  |  |  |  |  |  |  | > 100 |  | > 100 |  | > 100 |  | > 100 | > 100 | 
O=C(CCCCCCC(=O)N/N=C/c1ccc(N(c2ccccc2)c2ccccc2)cc1)NO | 2.94 | 13.5 |  |  | 3.16 | 18.5 | 0.357 | 1.62 | 3.07 | 20.5 | 0.39 | 1.57 | 2.72 | 13.1 | 2.28 | 7.39 | 2.99 | 9.51 | 7.57 | 2.64
COc1ccc2nc3cc(Cl)ccc3c(NCCC(=O)OCC(O)C(O)C(O[C@H](C)C(=O)NC(C)C(=O)NC(CCC(N)=O)C(=O)OCc3ccccc3)C(C=O)NC(C)=O)c2c1 (some centres undefined) |  | 31.4 |  | 37.8 |  |  |  | 37.7 |  |  |  | > 100 |  | 41.7 |  | 32.2 |  | 32.4 | 56.3 | 
O=C1OC(c2ccccc2)C2CC3CC4(CCC3CN12)OCCO4 (centres undefined) |  | > 100 |  | > 100 |  |  |  | > 100 |  |  |  | > 100 |  | > 100 |  |  |  | > 100 | > 100 | 
O=C(N/N=C/c1coc2ccc(Cl)cc2c1=O)c1ccncc1 | 43.2 | > 100 | 38.6 | > 100 | 73 | > 100 |  |  | 35.5 | > 100 | 56.8 | > 100 | 58.4 | > 100 | 29.9 | > 100 | 98.2 | > 100 |  | 
COC(=O)CCC(=O)CC(=O)C(=O)Nc1ccc(F)cc1 |  | > 100 |  | > 100 |  |  |  | > 100 |  |  |  | > 100 |  | > 100 |  | > 100 |  | > 100 |  | 
COC1OCC(OS(=O)(=O)c2ccc(C)cc2)C(OC(=O)c2ccccc2)C1OC(=O)c1ccccc1 (centres undefined) |  |  | > 100 | > 100 | 0.662 | 3.94 | 4.53 | 90.9 | 3.64 | > 100 |  |  | 4.04 | > 100 | 8.83 | > 100 | 6.14 | > 100 | > 100 | 4.08
N#Cc1ccc(/C=N\N2C(=O)c3ccccc3C2=O)cc1 |  | > 100 |  | > 100 |  |  |  | > 100 |  |  |  | > 100 |  | > 100 |  | > 100 |  | > 100 | > 100 | 
Cc1ccccc1N=Cc1ccc(N(CCC#N)S(=O)(=O)c2ccccc2)cc1 |  | > 100 |  | > 100 |  |  |  | > 100 |  |  |  | > 100 |  | > 100 |  | > 100 |  | > 100 | > 100 | 
C=CCCC(O)c1ccc(C(O)CCCCCCCCCCCC)o1 (centres undefined) | 18.3 | 34.2 | 21.7 | 43.9 | 17.8 | 34.7 |  |  | 20.9 | 45.8 | 19.2 | 40.1 | 21.7 | 42.8 | 15.8 | 29.2 | 17.7 | 39.2 |  | 
COc1c(OC(C)=O)c(OC(C)=O)cc2c1-c1ccc(OC)c(=O)cc1C(NC(C)=O)CC2 (centres undefined) |  | > 100 |  | 1.09 |  |  |  | 2.48 |  | 74.1 |  | > 100 |  | 0.555 |  | > 100 |  | > 100 | < 0.0103 | 
COCC1C(=O)c2cc3c(cc2C12C=CC1(C=C2)OCCO1)OCO3 (centres undefined) |  | 22.9 |  | 22.8 |  |  |  |  |  |  |  | 32.6 |  | 18.2 |  | 25.3 |  | 28.9 | 5.97 | 
CCCCCCCCCCCCOC1C(CNC(=O)C2OC3OC(C)(C)OC3C2NC(=O)CN2CCN(c3ccccn3)CC2)OC2OC(C)(C)OC21 (centres undefined) | 1.75 | 3.24 | 1.82 | 3.72 | 1.69 | 3.36 | 1.6 | 2.97 | 2.64 | 7.39 | 1.81 | 3.49 | 2.16 | 4.43 | 1.77 | 3.21 | 1.6 | 3.07 |  | 
CCOc1cc(C=O)c2c(ccc3ccc(OC)c(OC)c32)c1OC |  | > 100 |  | > 100 |  | > 100 |  |  |  | 81.5 |  | > 100 |  | > 100 |  | > 100 |  | > 100 | > 100 | 
CCOC(=O)NC(=O)c1cn(CCCCCOC(=O)NCCCCCCNC(=O)OCCCCCn2cc(C(=O)NC(=O)OCC)c(=O)[nH]c2=O)c(=O)[nH]c1=O |  | > 100 |  | > 100 |  |  |  | > 100 |  |  |  | > 100 |  | > 100 |  | > 100 |  | > 100 | > 100 | 
O=C1CSC(=S)N1c1ccc(F)cc1F |  | > 100 |  | > 100 |  | > 100 |  | > 100 |  | > 100 |  | > 100 |  | > 100 |  | > 100 |  | > 100 |  | 
